This note sets out measurements from ChEMBL document CHEMBL3232869, “Anti-inflammatory components of Euphorbia humifusa Willd” (Bioorg Med Chem Lett, 2014).

The structures appear in SMILES notation. Activity calls are given as the source filed them. No cut-off for these calls is given here.

Data set [1] deals with T1, Bifunctional epoxide hydrolase 2 (Homo sapiens, UniProt P34913).
T1 sequence (P34913 whole entry): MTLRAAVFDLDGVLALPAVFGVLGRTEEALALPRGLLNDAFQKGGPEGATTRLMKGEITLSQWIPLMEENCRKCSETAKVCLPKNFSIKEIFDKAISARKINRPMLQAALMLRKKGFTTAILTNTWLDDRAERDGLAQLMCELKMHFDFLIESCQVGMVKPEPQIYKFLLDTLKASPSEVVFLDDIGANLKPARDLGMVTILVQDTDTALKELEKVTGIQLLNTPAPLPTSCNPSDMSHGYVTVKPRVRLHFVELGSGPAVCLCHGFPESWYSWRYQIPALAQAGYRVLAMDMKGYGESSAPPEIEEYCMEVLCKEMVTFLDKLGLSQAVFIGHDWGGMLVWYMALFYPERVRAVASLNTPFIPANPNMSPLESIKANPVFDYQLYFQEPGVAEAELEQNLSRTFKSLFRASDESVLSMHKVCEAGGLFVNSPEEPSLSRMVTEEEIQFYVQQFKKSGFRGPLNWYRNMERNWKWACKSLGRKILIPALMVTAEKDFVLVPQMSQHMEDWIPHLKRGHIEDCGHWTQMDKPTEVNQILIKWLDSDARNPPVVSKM
Put plainly: Inhibition of sEH (unknown origin) assessed as substrate PHOME hydrolysis after 1 hr by fluorescence method.

Data set [2] concerns RAW264.7. Put plainly: Antiinflammatory activity in mouse RAW264.7 cells assessed as inhibition of LPS-induced nitric oxide production at 10 uM after 18 hrs by griess reaction analysis. Type of data set: functional.
In data set [3] the test system is RAW264.7. Put plainly: Antiinflammatory activity in mouse RAW264.7 cells assessed as inhibition of LPS-induced TNF-alpha secretion after 18 hrs by sandwich ELISA. Format: functional, cell-based. The note with it: RAW264.7, 18 h. For orientation: ELISA stands for enzyme-linked immunosorbent assay.
In data set [4] the test system is RAW264.7. Put plainly: Antiinflammatory activity in mouse RAW264.7 cells assessed as inhibition of LPS-induced nitric oxide production after 18 hrs by griess reaction analysis. Type of data set: functional, cell-based. The note with it: RAW264.7, 18 h. For orientation: The Griess reaction detects nitrite, a stable product of nitric oxide.
Data set [5] concerns RAW264.7. Put plainly: Antiinflammatory activity in mouse RAW264.7 cells assessed as inhibition of LPS-induced nitric oxide production at 0.4 uM after 18 hrs by griess reaction analysis. Type of data set: functional, cell-based.
For data set [6], the system named is RAW264.7. Put plainly: Cytotoxicity against mouse RAW264.7 cells assessed as cell viability at 50 uM after 18 hrs by MTT assay in presence of LPS. Type of data set: cell-based. The following applies: raw264.7, 18 h. (In general: Formazan colour is commonly taken as a measure of viable cells.)
The target in data set [7] is T2, Bifunctional epoxide hydrolase 2 (Homo sapiens) (UniProt P34913).
T2 sequence (whole entry): T1 sequence (P34913 whole entry)
Put plainly: Inhibition of sEH (unknown origin) assessed as substrate PHOME hydrolysis at 25 uM after 1 hr by fluorescence method.

Data set [8] concerns RAW264.7. Put plainly: Antiinflammatory activity in mouse RAW264.7 cells assessed as inhibition of LPS-induced TNF-alpha secretion at 0.4 uM after 18 hrs by sandwich ELISA. Type of data set: functional, cell-based.
The test system of data set [9] is RAW264.7. Put plainly: Antiinflammatory activity in mouse RAW264.7 cells assessed as inhibition of LPS-induced TNF-alpha secretion at 10 uM after 18 hrs by sandwich ELISA. Type of data set: functional.

One may read the IC50 as the concentration at which inhibition is half-maximal. Usually inhibition stands for the percentage by which the read-out fell short of the control.

Take `O=c1oc2c(O)c(O)cc3c(=O)oc4c(O)c(O)cc1c4c23` [ELLAGIC ACID]: the IC50 was 20.7 µM in data set [1], above 50 µM in the data set with RAW264.7 [3] and 35.7 µM in the data set with RAW264.7 [4]. The inhibition result with RAW264.7 [2], with RAW264.7 [5] and with RAW264.7 [8] was “inactive” throughout. The Activity result in the data set on RAW264.7 [6] is “Non-toxic”. Besides, in [7], the inhibition is above 40%. Besides, the inhibition entry in the data set with RAW264.7 [9] was “Active”.

Take `C[C@@H]1O[C@@H](OC[C@H]2O[C@@H](Oc3c(-c4ccc(O)c(O)c4)oc4cc(O)cc(O)c4c3=O)[C@H](O)[C@@H](O)[C@@H]2O)[C@H](O)[C@H](O)[C@H]1O` [RUTIN]: the IC50 in data set [1] was 24.3 µM; in the data set on RAW264.7 [3] it was 44.5 µM; with RAW264.7 [4], 27.5 µM. In addition, the inhibition entry with RAW264.7 [2] and in the data set on RAW264.7 [9] was “Active” in each case. Also, the inhibition result with RAW264.7 [5] and in the data set with RAW264.7 [8] was “inactive” in each case. Besides, in the data set on RAW264.7 [6], the Activity entry is recorded as “Non-toxic”. The inhibition in [7] was above 40%.

In the case of `O=C(OC[C@H]1O[C@@H](OC(=O)c2cc(O)c(O)c(O)c2)[C@H](O)[C@@H](OC(=O)c2cc(O)c(O)c(O)c2)[C@@H]1OC(=O)c1cc(O)c(O)c(O)c1)c1cc(O)c(O)c(O)c1`, the IC50 in [1] is 36.1 µM; with RAW264.7 [3], 22.6 µM; with RAW264.7 [4], above 50 µM. The inhibition result with RAW264.7 [2], with RAW264.7 [5] and in the data set with RAW264.7 [8] was “inactive” throughout. Further, the Activity result in the data set with RAW264.7 [6] was “Non-toxic”. Besides, the inhibition in data set [7] is above 40%. The inhibition entry with RAW264.7 [9] was “Active”.
